Consider 21 compounds from patent US10017509B2, “Macrocylic pyrimidine derivatives” (Janssen Pharmaceutica NV, priority 2014, dated 2018).

Test [1] deals with T1, EF2K (Homo sapiens, UniProt O00418).
T1 construct: host or cells: LN-229 cell lysate
T1 sequence (O00418 1-725): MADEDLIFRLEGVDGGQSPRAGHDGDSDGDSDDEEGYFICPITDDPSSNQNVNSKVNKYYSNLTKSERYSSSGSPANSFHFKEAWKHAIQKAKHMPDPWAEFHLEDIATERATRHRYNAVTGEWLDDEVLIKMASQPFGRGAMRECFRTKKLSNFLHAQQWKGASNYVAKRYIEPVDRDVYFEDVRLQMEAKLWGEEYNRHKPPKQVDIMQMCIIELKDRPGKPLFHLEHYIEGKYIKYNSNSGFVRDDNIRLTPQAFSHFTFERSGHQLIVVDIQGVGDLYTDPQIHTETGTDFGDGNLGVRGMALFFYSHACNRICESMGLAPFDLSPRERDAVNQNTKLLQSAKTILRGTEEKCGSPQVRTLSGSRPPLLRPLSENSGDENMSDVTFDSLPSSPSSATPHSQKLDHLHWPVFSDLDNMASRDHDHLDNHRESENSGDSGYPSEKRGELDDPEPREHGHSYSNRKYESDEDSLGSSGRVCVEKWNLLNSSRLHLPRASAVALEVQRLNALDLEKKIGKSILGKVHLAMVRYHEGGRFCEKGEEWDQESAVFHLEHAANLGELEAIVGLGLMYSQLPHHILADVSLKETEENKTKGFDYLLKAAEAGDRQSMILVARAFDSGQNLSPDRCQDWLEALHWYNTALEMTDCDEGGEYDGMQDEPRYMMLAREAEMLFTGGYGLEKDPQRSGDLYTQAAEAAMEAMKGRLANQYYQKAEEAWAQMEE
The test can be described thus: EF2K cell-based assay (P-EF2 AlphaLISA, 2-deoxyglucose stimulated MCF10A cells). The following applies: 2.5 mM 2-deoxyglucose stimulated, P-EF2 Thr56, pIC50 = -log IC50 (M), read-out: eEF2K_C_PThr56 pIC50 (converted). On the procedure:
In this assay, 2.5 mM 2-deoxyglucose was used to deplete intracellular ATP and activate 5′ adenosine monophosphate-activated protein kinase (AMPK) in the immortalized epithelial breast cell lines, MCF10A. MCF 10A cells were purchased from ATCC (CRL-10317).
MCF10A cells are seeded at a density of 1.25×10^5 Cells/ml at 100 μl/well in a 96-well plate and incubated for 24 hours (37° C., 5% CO2). Compound is added for 1 hour, and cell are stimulated with 2.5 mM of 2-deoxy-glucose for 4 hours. Medium is then removed, and cells are lysed in an ice-cold buffer M-PER (Thermo Scientific, 78501), containing protease and phosphatase inhibitors. P-EF2 levels are determined in these lysates using the P-EF2 AlphaLISA described above.
(§1) (pIC50 is −log IC50 where IC50 represents the concentration expressed in M at which the test compound gives 50% inhibition)

Test [2] has as its target T1, EF2K. The test can be described thus: Biochemical EF2K lysate-based kinase assay (AlphaLISA p-eEF2 Thr56). Particulars: pIC50 = -log IC50 (M), read-out: eEF2K_C_alphalisa pIC50 (converted).
Excerpt: Biochemical EF2K Lysate-Based Kinase Assay
LN-229 cells were purchased from ATCC (CRL-2611); these are glioblastoma cells. Cell lysates from LN229 were used in this kinase assay to provide both the kinase and the substrate (EF2). The AlphaLISA p-eEF2 (Thr56) detection assay was developed using a sandwich assay format with two specific antibodies recognizing different epitopes of the target, including one antibody against the phosphorylation site of interest. One anti-eEF2 antibody was conjugated onto AlphaLISA Acceptor beads, while the second antibody was biotinylated and captured by streptavidin coated Donor beads.
Compound was mixed with LN-229 cell lysates in the presence of a kinase buffer (e.g. HEPES) at a pH of 6.6, containing 10 mM Mg^2+ (e.g. magnesium acetate) and 10 mM adenosine-tri-phosphate (ATP) and incubated at room temperature for 15 minutes. The kinase reaction was stopped with excess ethylenediaminetetraacetic acid disodium salt and the biotinylated-anti phospho eEF2 antibody (3 nM) was added for 1 hour. Then the anti-EF2 acceptor beads (10 μg/ml) as well as the streptavidin coated donor beads (20 μg/ml) were added for 1 hour, and the AlphaLISA signal was measured in an Envision instrument once, left overnight, and measured again for the final read.
as §1

Test [3] deals with Vps34 (PIK3C3 lipid kinase) (Homo sapiens, UniProt Q8NEB9). The test can be described thus: Biochemical Vps34 lipid kinase assay (ADP-Glo). Particulars: for IC50: serial half-log dilution 10 μM to 0.3 nM, pIC50 = -log IC50 (M); for VPS34_1microM_% of cntrl / remaining activity at 1 µM: single dose 1 μM compound, residual activity compared to control (DMSO); for remaining activity at 1 µM: 1 h, read-out: VPS34_1microM_% of cntrl. On the procedure:
Biochemical Vps34 Lipid Kinase Assay
A non-radiometric kinase assay (ADP-Glo™ Assay, Promega, Madison, Wi, USA) was used for measuring the kinase activity of the PIK3C3 lipid kinase. All kinase assays were performed in 96-well half-area microtiter plates in a 25 μl reaction volume. The reaction cocktail was pipetted in 3 steps in the following order: • 10 μl of ATP solution (in assay buffer, see below) • 5 μl of test sample in 5% DMSO 10 μl of enzyme/substrate mixture
All lipid kinase assays contained 50 mM HEPES (4-(2-hydroxyethyl)-1-piperazineethanesulfonic acid)-NaOH, pH 7.5, 1 mM EGTA ((ethylene glycol tetraacetic acid), 100 mM NaCl, 0.03% CHAPS (3-[(3-Cholamidopropyl)dimethylammonio]-1-propanesulfonate), 2 mM DTT (Dithiothreitol), 20 μM ATP (corresponding to the apparent ATP-Km), kinase (7.6 nM) and substrate (50 μM). The assay for PIK3C3 additionally contained 3 mM MnCl2.
The reaction cocktails were incubated at 30° C. for 60 minutes. The reaction was stopped with 25 μl ADP-Go™ reagent per well. Plates were incubated for 40 minutes at room temperature, followed by addition of 50 μl kinase detection reagent per well and incubation for 60 minutes at room temperature. Signal was determined with a microplate luminescence reader (Victor, Perkin Elmer). The assay was either performed using a single dose of compound (1 μM final concentration in the assay reaction) with resulting data expressed as residual activity compared to control (DMSO), or using a serial (half-log) dilution of compounds starting at 10 μM and down to 0.3 nM (final concentrations in the assay) with data expressed as the pIC50.
as §1

Sequence of Vps34 (PIK3C3 lipid kinase) (Q8NEB9 whole entry, species assumed): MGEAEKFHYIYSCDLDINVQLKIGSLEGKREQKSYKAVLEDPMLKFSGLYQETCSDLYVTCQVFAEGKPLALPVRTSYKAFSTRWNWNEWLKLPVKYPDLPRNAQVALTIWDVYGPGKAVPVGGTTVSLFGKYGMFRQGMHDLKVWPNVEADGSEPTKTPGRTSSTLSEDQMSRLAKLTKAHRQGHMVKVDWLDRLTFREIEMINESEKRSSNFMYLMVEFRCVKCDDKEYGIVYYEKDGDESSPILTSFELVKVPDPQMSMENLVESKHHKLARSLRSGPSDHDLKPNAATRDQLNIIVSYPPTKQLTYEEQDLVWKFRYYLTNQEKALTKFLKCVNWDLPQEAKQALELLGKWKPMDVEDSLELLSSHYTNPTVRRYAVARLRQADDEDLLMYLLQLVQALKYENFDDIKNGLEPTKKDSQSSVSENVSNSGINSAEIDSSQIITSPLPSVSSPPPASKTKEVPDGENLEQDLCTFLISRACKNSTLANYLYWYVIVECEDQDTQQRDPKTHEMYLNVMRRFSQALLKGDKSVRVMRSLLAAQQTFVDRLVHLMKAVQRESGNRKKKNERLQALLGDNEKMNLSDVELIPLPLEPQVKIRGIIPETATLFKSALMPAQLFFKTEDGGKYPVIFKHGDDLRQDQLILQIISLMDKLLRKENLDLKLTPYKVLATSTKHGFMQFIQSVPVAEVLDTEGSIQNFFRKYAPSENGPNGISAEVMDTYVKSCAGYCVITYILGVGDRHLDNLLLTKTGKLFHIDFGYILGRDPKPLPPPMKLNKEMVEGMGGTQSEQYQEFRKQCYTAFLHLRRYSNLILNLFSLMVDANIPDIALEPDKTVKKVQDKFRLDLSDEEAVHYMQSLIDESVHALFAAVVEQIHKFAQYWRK

`O=C1CN2CCN(CC2)Cc2cccc(c2)Nc2nccc(n2)-c2ccc(nc2)N2CC(O)CC2CCN1` (single isomer, unassigned) [Compound 90]: the IC50 at EF2K [1] is above 3.02e-05 M; on EF2K [2] it was 9.33e-06 M; in test [3], 2.09e-07 M. The VPS34_1microM_% of cntrl in test [3] was 15.81 % of cntrl.
For `O=C1CN2CCN(CC2)Cc2cccc(c2)Nc2nccc(n2)-c2ccc(nc2)N2CC(O)CC2CCN1` (single isomer, unassigned) [Compound 91], the IC50 at EF2K [1] is 1.41e-06 M; on EF2K [2] it was 1.17e-08 M; in test [3], 5.13e-06 M.
Regarding `CN1CCCN(C)c2ccc(cn2)-c2ccnc(n2)Nc2cccc(c2)CN2CCN(CC1=O)C(CO)C2` (single isomer, unassigned) [Compound 95], the results for the IC50 (at EF2K [1]; at EF2K [2]; in test [3]) were above 3.02e-05 M, 8.32e-07 M and 3.47e-07 M, respectively. In test [3], the remaining activity at 1 µM was 18.8%.
Regarding `O=C1CN2CCN(CC2)Cc2cccc(c2)Nc2nccc(n2)-c2ccc(nc2)N2CC(O)CC2CCN1` (single isomer, unassigned) [Compound 96], the IC50 at EF2K [1] is 1.26e-06 M; at EF2K [2], 6.76e-09 M; in test [3], 1.32e-07 M.
For `CN1CCCN(C)c2ccc(cn2)-c2ccnc(n2)Nc2cccc(c2)CN2CCN(CC1=O)CC2COCCN1CCOCC1` (single isomer, unassigned) [Compound 99], in that order: above 3.02e-05 M, 2.4e-06 M and 1.51e-06 M.
On to `CN1CCCN(C)c2ccc(cn2)-c2ccnc(n2)Nc2cccc(c2)CN2CCN(CC1=O)CC2COCCN1CCOCC1` (single isomer, unassigned) [Compound 100], for which the IC50 on EF2K [1] is 1.48e-05 M; at EF2K [2], 6.46e-08 M. Also, the remaining activity at 1 µM in test [3] worked out at 43%.
For `CN1CCCN(C)c2ccc(cn2)-c2ccnc(n2)Nc2cccc(c2)CN2CCN(CC1=O)CC2COCCO` (single isomer, unassigned) [Compound 104], the IC50 is above 3.02e-05 M on EF2K [1], 1.78e-05 M on EF2K [2] and 3.02e-07 M in test [3]. Besides, the remaining activity at 1 µM in test [3] stood at 25.1%.
As to `CN1CCCN(C)c2ccc(cn2)-c2ccnc(n2)Nc2cccc(c2)CN2CCN(CC1=O)CC2COCCO` (single isomer, unassigned) [Compound 105], the IC50 at EF2K [1] was 1.78e-05 M; at EF2K [2] it was 8.71e-08 M; in test [3] it was 9.77e-07 M. Further, the VPS34_1microM_% of cntrl in test [3] is 28.59 % of cntrl.
The corresponding values for `CC1CN2CCN1CC(=O)NCCCNc1ccc(cn1)-c1ccnc(n1)Nc1cccc(c1)C2` (single isomer, unassigned) [Compound 136] are around 8.51e-06 M, 1.45e-07 M, 1.66e-08 M and 3.08 % of cntrl.
The corresponding values for `CC1CN2CCN1CC(=O)NCCCNc1ccc(cn1)-c1ccnc(n1)Nc1cccc(c1)C2` (single isomer, unassigned) [Compound 137] are above 3.02e-05 M, 1.95e-06 M, 8.13e-08 M and 8.17 % of cntrl.
Take `CN1CCCN(C)c2ccc(cn2)-c2ccnc(n2)Nc2cccc(c2)CN2CCN(CC2)CC1=O` [Compound 1]: the IC50 was 2.95e-06 M at EF2K [1], 7.59e-08 M on EF2K [2] and 1.55e-06 M in test [3].
Regarding `O=C1CN2CCN(CC2)Cc2cc(ccc2F)Nc2nccc(n2)-c2ccc(nc2)NCCCN1` [Compound 2], the IC50 at EF2K [1] was 5.75e-06 M; at EF2K [2] it was 6.31e-08 M; in test [3], 1e-07 M. Besides, the remaining activity at 1 µM in test [3] amounted to 4.44%.
As to `O=C1CN2CCN(CC2)Cc2ccc(F)c(c2)Nc2nccc(n2)-c2ccc(nc2)NCCCN1` [Compound 3], the values for the IC50 (at EF2K [1]; on EF2K [2]; in test [3]) were above 3.02e-05 M, 1.66e-06 M and 6.76e-08 M, respectively. In addition, the remaining activity at 1 µM in test [3] was 4.43%.
For `O=C1CN2CCN(CC2)Cc2cccc(c2F)Nc2nccc(n2)-c2ccc(nc2)NCCCN1` [Compound 4], in that order: 8.71e-06 M, 8.32e-08 M, 4.79e-07 M and 29.3%.
For `O=C1CN2CCN(CC2)Cc2cc(F)cc(c2)Nc2nccc(n2)-c2ccc(nc2)NCCCN1` [Compound 5], in that order: 2.51e-05 M, 7.59e-07 M, 6.92e-08 M and 7.3%.
As to `CN1CCCN(C)c2ccc(cn2)-c2ccnc(n2)Nc2cc(F)cc(c2)CN2CCN(CC2)CC1=O` [Compound 6], the values for the IC50 (at EF2K [1]; on EF2K [2]; in test [3]) were 2.45e-05 M, 6.61e-07 M and 2.51e-07 M, respectively. The remaining activity at 1 µM in test [3] is 17.4%.
The corresponding values for `Cc1cc2cc(c1)Nc1nccc(n1)-c1ccc(nc1)NCCCNC(=O)CN1CCN(CC1)C2` [Compound 7] are above 3.02e-05 M, 1.38e-05 M, 1.58e-07 M and 15.1%.
Regarding `Cc1cc2cc(c1)Nc1nccc(n1)-c1ccc(nc1)N(C)CCCN(C)C(=O)CN1CCN(CC1)C2` [Compound 8], the IC50 on EF2K [1] was above 3.02e-05 M; at EF2K [2] it was 1.41e-05 M. Moreover, the remaining activity at 1 µM in test [3] is 41.1%.
Turning to `O=C1CN2CCN(CC2)Cc2cc(Cl)cc(c2)Nc2nccc(n2)-c2ccc(nc2)NCCCN1` [Compound 9], the IC50 was above 3.02e-05 M on EF2K [1], around 6.03e-06 M at EF2K [2] and 9.77e-08 M in test [3]. Besides, the remaining activity at 1 µM in test [3] came to 8.43%.
For `CN1CCCN(C)c2ccc(cn2)-c2ccnc(n2)Nc2ccc(C(N)=O)c(c2)CN2CCN(CC2)CC1=O` [Compound 10], in that order: 1.29e-05 M, 3.63e-07 M, 2.88e-07 M and 10.8%.
As for `CN1CCCN(C)c2ccc(cn2)-c2ccnc(n2)Nc2ccc(C(=O)O)c(c2)CN2CCN(CC2)CC1=O` [Compound 11], the IC50 was above 3.02e-05 M at EF2K [1] and 4.57e-07 M on EF2K [2]. In test [3], the remaining activity at 1 µM amounted to 33.3%.
